Measurements: US20110105397A1, “METHOD FOR TREATING HEART FAILURE WITH STRESSCOPIN-LIKE PEPTIDES” (priority 2009, published 2011)
Where two headings read alike, the source gives them in different places.

Tests used:
[1] = tested on: Langendorff perfused rabbit heart; experiment: Retrograde-perfused Langendorff rabbit heart assay; details: bolus into the perfusion block
Protocol: The effect of h-SCP (SEQ ID NO:1) on heart rate (HR), left ventricular (LV) contraction, and vascular tone was assessed in a retrograde-perfused Langendorff rabbit heart assay.

[2] = tested on: dogs with advanced heart failure; experiment: Hemodynamic, angiographic, echocardiographic profile in anaesthetized dogs with advanced heart failure, IV infusion; format: in vivo, dog
Protocol: The effects of h-SCP (SEQ ID NO:1) on cardiovascular function were also assessed in anaesthetized dogs with advanced, irreversible heart failure of ischemic etiology (Sabbah et al., 1991, Am. J. Physiol., vol. 260, pp. H1379-H1384; Sabbah et al., 1994, Circulation, vol. 98, pp. 2852-2859; Chandler et al., 2002, Circ. Res., vol. 91, pp. 278-280). Progressive, advanced heart failure was produced in mongrel dogs by multiple sequential intracoronary microembolization with polystyrene latex microspheres. Dose infusions of 2.2, 4.3, and 7.3 ng/kg/min were administered intravenously over 60 minutes just following or just prior to hemodynamic, angiographic, echocardiographic, and Doppler measurements using conventional hemodynamic, angiographic, echocardiographic, and radiographic methods. The h-SCP polypeptide (SEQ ID NO:1) produced dose- (infusion-) dependent increases in LVEF and SV and decreases in left ventricular end diastolic pressure (LVEDP), left ventricular pressure during isovolumic relaxation (LV-dP/dt), systemic vascular resistance (SVR), and left ventricular end-systolic volume (LVESV) that correlated with plasma concentration. No significant change in heart rate, peak systolic aortic blood pressure, LV+dP/dt, mean pulmonary artery pressure, mean pulmonary artery wedge pressure, right atrial pressure, or myocardial oxygen consumption were recorded following any of the 1 hour intravenous infusions (Table 18 and FIGS. 12 A & B). The improvement in LV systolic and diastolic function was not associated with the development of de novo ventricular arrhythmias.
In order to determine the threshold effective dose-infusion in dogs with advanced heart failure, a further study was performed at lower dose infusions. In addition, the opportunity was taken to explore whether the increase in LVEF produced by higher dose-infusions of 4.3 ng/kg/min would remain stable over a longer infusion period, i.e. 120 minutes.
In order to understand the potential cardiovascular effects of neutralizing antibody formation to h-SCP (SEQ ID NO:1), SV30 (SEQ ID No. 118), a competitive antagonist of CRHR2, was administered to dogs (N=4) with advanced heart failure. […] These experiments with SV30 indicate that baseline cardiovascular parameters in dogs with advanced heart failure were not dependent upon endogenous hormone stimulation of CRHR2. Similar findings have been reported in healthy conscious and anaesthetized rats (Gardiner et al., J. Pharmacol. Exp. Ther., 2007, vol 321, pp. 221-226).

[3] = Table 18, IV infusion 2.2 ng/kg/min, 60 min
[4] = Table 18, IV infusion 4.3 ng/kg/min, 60 min
[5] = Table 18, IV infusion 7.3 ng/kg/min, 60 min
[6] = Table 19, IV infusion 0.22 ng/kg/min, 60 min
[7] = Table 19, IV infusion 0.43 ng/kg/min, 60 min
[8] = Table 19, IV infusion 4.3 ng/kg/min, 60 min
[9] = Table 19, IV infusion 4.3 ng/kg/min, 120 min
[10] = Table 20, SEQ ID NO: 1 4.3 ng/kg/min + AS-30

“H-TKFTLSLDVPTNIMNLLFNIAKAKNLRAQAAANAHLMAQI-NH2 [SEQ ID NO: 1, TKFTLSLDVPTNIMNLLFNIAKAKNLRAQAAANAHLMAQI-NH2]” was tested, and the EC50 ([1]; read-out: concentration for 50% response, decrease in coronary perfusion pressure (CPP)) was 46 nM, the EC50 ([1]; read-out: concentration for 50% response, increase in heart rate) was 52 nM and the EC50 ([1]; read-out: concentration for 50% response, increase in left ventricular developed pressure (dP/dtmax)) was 9.9 nM. For the same substance, the “-ESV” value [2, 3] was 46 ± 1.7 mL, the CO [2, 3] was 1.56 ± 0.11 L/min and the EDV [2, 3] was 66 ± 2.5 mL. For the same substance, the EF [2, 3] was 31 ± 0.5^+++,a,b %, the HR [2, 3] was 76 ± 2 beats/min and the “LV Efficiency” value [2, 3] was 23.0 ± 3.1%. For the same substance, the “LV+dP/dt (isovolumic contraction)” value [2, 3] was 1477 ± 104 mmHg/sec, the “LVCBF (total left ventricular coronary blood flow)” value (“LVCBF” below) [2, 3] was 52 ± 5 mL/min and the “LVEDP (left ventricular end diastolic pressure)” value [2, 3] was 13 ± 0.9^+ mmHg. The “LV−dP/dt (isovolumic relaxation)” value [2, 3] was 1216 ± 44 mmHg/sec, the “MPAP (mean pulmonary artery pressure)” value [2, 3] was 15 ± 0.5 mmHg and the “MVO2 (myocardial oxygen consumption)” value [2, 3] was 191 ± 14 μmols/min. For the same substance, the “PAWP (mean pulmonary artery wedge pressure)” value [2, 3] was 9.0 ± 0.6 mmHg, the PSAP [2, 3] was 90 ± 3 mmHg and the “RAP (mean right atrial pressure)” value [2, 3] was 5.7 ± 0.5 mmHg. The SV [2, 3] was 20 ± 0.9^+ mL, the “SVR (systemic vascular resistance)” value [2, 3] was 4414 ± 193 dynes-sec-cm^−5 and the “-ESV” value [2, 4] was 43 ± 1.7 mL. For the same substance, the CO [2, 4] was 1.61 ± 0.13 L/min, the EDV [2, 4] was 65 ± 2.5 mL and the EF [2, 4] was 33 ± 0.5^+++,c %. The HR [2, 4] was 73 ± 3 beats/min, the “LV Efficiency” value [2, 4] was 26.0 ± 4.4% and the “LV+dP/dt (isovolumic contraction)” value [2, 4] was 1400 ± 71 mmHg/sec. The “LVCBF” value [2, 4] was 57 ± 6 mL/min, the “LVEDP (left ventricular end diastolic pressure)” value [2, 4] was 13 ± 0.4^+ mmHg and the “LV−dP/dt (isovolumic relaxation)” value [2, 4] was 1094 ± 42^+ mmHg/sec. The “MPAP (mean pulmonary artery pressure)” value [2, 4] was 15 ± 0.5 mmHg, the “MVO2 (myocardial oxygen consumption)” value [2, 4] was 177 ± 19 μmols/min and the “PAWP (mean pulmonary artery wedge pressure)” value [2, 4] was 10 ± 0.6 mmHg. The PSAP [2, 4] was 87 ± 2 mmHg, the “RAP (mean right atrial pressure)” value [2, 4] was 5.4 ± 0.4 mmHg and the SV [2, 4] was 22 ± 0.9^++ mL. For the same substance, the “SVR (systemic vascular resistance)” value [2, 4] was 4144 ± 243^+ dynes-sec-cm^−5, the “-ESV” value [2, 5] was 41 ± 1.8^+ mL and the CO [2, 5] was 1.67 ± 0.09 L/min. The EDV [2, 5] was 64 ± 2.4 mL, the EF [2, 5] was 35 ± 0.9^+++ % and the HR [2, 5] was 74 ± 2 beats/min. The “LV Efficiency” value [2, 5] was 23.3 ± 3.2%, the “LV+dP/dt (isovolumic contraction)” value [2, 5] was 1398 ± 74 mmHg/sec and the “LVCBF” value [2, 5] was 59 ± 6 mL/min. For the same substance, the “LVEDP (left ventricular end diastolic pressure)” value [2, 5] was 12 ± 0.6^++ mmHg, the “LV−dP/dt (isovolumic relaxation)” value [2, 5] was 1112 ± 82^+ mmHg/sec and the “MPAP (mean pulmonary artery pressure)” value [2, 5] was 14 ± 0.4 mmHg. The “MVO2 (myocardial oxygen consumption)” value [2, 5] was 196 ± 18 μmols/min, the “PAWP (mean pulmonary artery wedge pressure)” value [2, 5] was 9.0 ± 0.3 mmHg and the PSAP [2, 5] was 87 ± 2 mmHg. For the same substance, the “RAP (mean right atrial pressure)” value [2, 5] was 5.0 ± 0.4 mmHg, the SV [2, 5] was 22 ± 0.9^++ mL and the “SVR (systemic vascular resistance)” value [2, 5] was 3958 ± 182^++ dynes-sec-cm^−5. The CO [2, 6] was 1.37 ± 0.04 L/min, the HR [2, 6] was 75 ± 1.1 beats/min and the “LV+dP/dt” value [2, 6] was 1842 ± 127 mmHg/sec. The LVEDP [2, 6] was 14 ± 1.1 mmHg, the LVEDV [2, 6] was 66 ± 1.5 mL and the LVEF [2, 6] was 28 ± 0.6%. The LVESV [2, 6] was 48 ± 1.2 mL, the “LV−dP/dt” value [2, 6] was 1448 ± 155 mmHg/sec and the MPAP [2, 6] was 15 ± 0.7 mmHg. The PAWP [2, 6] was 10.1 ± 0.6 mmHg, the PSAP [2, 6] was 97 ± 3.3 mmHg and the SV [2, 6] was 18 ± 0.5 mL. It also gave an SVR [2, 6] of 4757 ± 287 dynes-sec-cm^−5, a CO [2, 7] of 1.50 ± 0.04 L/min and an HR [2, 7] of 77 ± 1.0 beats/min. For the same substance, the “LV+dP/dt” value [2, 7] was 1691 ± 96 mmHg/sec, the LVEDP [2, 7] was 13 ± 1.4 mmHg and the LVEDV [2, 7] was 65 ± 1.1 mL. The LVEF [2, 7] was 30 ± 0.9%, the LVESV [2, 7] was 45 ± 1.2 mL and the “LV−dP/dt” value [2, 7] was 1249 ± 120 mmHg/sec. For the same substance, the MPAP [2, 7] was 15 ± 0.8 mmHg, the PAWP [2, 7] was 9.6 ± 0.7 mmHg and the PSAP [2, 7] was 93 ± 3.6 mmHg. The SV [2, 7] was 19 ± 0.5 mL, the SVR [2, 7] was 4134 ± 195 dynes-sec-cm^−5 and the CO [2, 8] was 1.68 ± 0.06^++,a,c L/min. The HR [2, 8] was 79 ± 2.0 beats/min, the “LV+dP/dt” value [2, 8] was 1667 ± 88 mmHg/sec and the LVEDP [2, 8] was 12 + 1.4 mmHg. For the same substance, the LVEDV [2, 8] was 63 ± 1.3 mL, the LVEF [2, 8] was 34 ± 1.4^+++,b,e % and the LVESV [2, 8] was 42 ± 1.4^++,a mL. The “LV−dP/dt” value [2, 8] was 1166 ± 82 mmHg/sec, the MPAP [2, 8] was 15 ± 0.8 mmHg and the PAWP [2, 8] was 9.0 ± 0.6 mmHg. For the same substance, the PSAP [2, 8] was 92 ± 4.1 mmHg, the SV [2, 8] was 21 ± 0.8^+++,a,c mL and the SVR [2, 8] was 3638 ± 191^+,d dynes-sec-cm^−5. The CO [2, 9] was 1.83 ± 0.09^+++,b,e L/min, the HR [2, 9] was 81 ± 3.6 beats/min and the “LV+dP/dt” value [2, 9] was 1640 ± 88 mmHg/sec. The LVEDP [2, 9] was 12 ± 1.2 mmHg, the LVEDV [2, 9] was 62 ± 1.3 mL and the LVEF [2, 9] was 37 ± 1.2^+++,b,e %. For the same substance, the LVESV [2, 9] was 39 ± 1.4^+++,b,e mL, the “LV−dP/dt” value [2, 9] was 1124 ± 92 mmHg/sec and the MPAP [2, 9] was 15 ± 0.9 mmHg. For the same substance, the PAWP [2, 9] was 9.4 ± 0.8 mmHg, the PSAP [2, 9] was 92 ± 4.3 mmHg and the SV [2, 9] was 23 ± 0.6^+++,a,e mL. The SVR [2, 9] was 3372 ± 238^++,a,c dynes-sec-cm^−5, the CO [2, 10] was 1.55 ± 0.08 L/min and the HR [2, 10] was 82 ± 4 beats/min. The “LV+dP/dt” value [2, 10] was 1618 ± 79 mmHg/sec, the LVEDP [2, 10] was 15 ± 2 mmHg and the LVEDV [2, 10] was 68 ± 2.1 mL. The LVEF [2, 10] was 28 ± 0.5%, the LVESV [2, 10] was 49 ± 1.8 mL and the MPAP [2, 10] was 16 ± 0.8 mmHg. For the same substance, the PSAP [2, 10] was 90 ± 4 mmHg, the SV [2, 10] was 19 ± 0.4 mL and the “infusion dose with minimal effect on left ventricular systolic and diastolic function” value ([2]; dogs with advanced heart failure, 60 minutes) was 0.43 ng/kg/min.
